In ChEMBL document CHEMBL5729289, “JAK inhibitor and use thereof” (2022):

What was measured:
[1] = target: Tyrosine-protein kinase JAK1 (Homo sapiens, UniProt P23458); assay: (§1) In Vitro Activity Assay: JAK1 (h) was incubated with 20 mM Tris/HCl pH 7.5, 0.2 mM EDTA, 500 μM […], 10 mM magnesium acetate and [γ-33P]-ATP (activity and concentration were formulated as needed). Mg/ATP mixture was added to initiate the reaction. After incubating at room temperature for 40 minutes, the reaction mixture was added with 0.5% phosphoric acid to stop the reaction. Then 10 μL reaction solution was spotted on a P30 filter pad and washed with 0.425% phosphoric acid three times and methanol once over 4 minutes, dried, and counted scintillation.
Chain of Tyrosine-protein kinase JAK1 (P23458 whole entry): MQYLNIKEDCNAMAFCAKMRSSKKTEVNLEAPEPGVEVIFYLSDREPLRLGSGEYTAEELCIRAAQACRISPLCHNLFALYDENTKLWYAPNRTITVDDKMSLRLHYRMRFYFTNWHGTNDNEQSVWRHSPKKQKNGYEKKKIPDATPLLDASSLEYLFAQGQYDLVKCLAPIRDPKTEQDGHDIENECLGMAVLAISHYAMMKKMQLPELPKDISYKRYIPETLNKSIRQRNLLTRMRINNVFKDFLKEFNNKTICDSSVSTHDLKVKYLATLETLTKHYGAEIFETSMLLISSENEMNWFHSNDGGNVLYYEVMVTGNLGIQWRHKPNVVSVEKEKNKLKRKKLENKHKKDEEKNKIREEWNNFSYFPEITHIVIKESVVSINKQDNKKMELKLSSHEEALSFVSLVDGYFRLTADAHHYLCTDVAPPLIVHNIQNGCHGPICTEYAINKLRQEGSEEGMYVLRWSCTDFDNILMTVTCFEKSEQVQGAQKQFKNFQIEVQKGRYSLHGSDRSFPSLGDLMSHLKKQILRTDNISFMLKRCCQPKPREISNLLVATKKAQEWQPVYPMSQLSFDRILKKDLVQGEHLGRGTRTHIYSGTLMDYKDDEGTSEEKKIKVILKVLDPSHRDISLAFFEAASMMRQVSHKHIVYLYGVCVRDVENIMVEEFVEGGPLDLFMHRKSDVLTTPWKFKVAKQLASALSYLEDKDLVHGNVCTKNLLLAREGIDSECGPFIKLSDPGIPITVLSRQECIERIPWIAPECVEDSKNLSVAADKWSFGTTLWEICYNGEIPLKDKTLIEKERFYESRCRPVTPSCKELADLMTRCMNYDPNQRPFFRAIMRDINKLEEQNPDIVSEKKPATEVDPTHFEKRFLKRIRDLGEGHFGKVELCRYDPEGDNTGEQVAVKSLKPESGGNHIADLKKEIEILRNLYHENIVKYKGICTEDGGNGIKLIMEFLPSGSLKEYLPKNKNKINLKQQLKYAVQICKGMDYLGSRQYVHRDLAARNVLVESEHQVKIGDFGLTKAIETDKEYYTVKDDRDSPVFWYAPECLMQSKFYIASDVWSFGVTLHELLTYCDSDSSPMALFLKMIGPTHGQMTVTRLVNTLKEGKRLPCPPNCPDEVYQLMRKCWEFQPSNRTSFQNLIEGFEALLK

[2] = target: Tyrosine-protein kinase JAK2 (Homo sapiens, UniProt O60674); assay: In Vitro Activity Assay: JAK2 (h) and 8 mM MOPS pH 7.0, 0.2 mM EDTA, 100M KTFCGTPEYLAPEVRREPRILSEEEQEMFRDFDYIADWC, 10 mM magnesium acetate and [γ-33P]-ATP (activity and concentration were formulated as needed) were incubated together. Mg/ATP mixture was added to initiate the reaction. After incubating at room temperature for 40 minutes, the reaction mixture was added with 0.5% phosphoric acid to …
Chain of Tyrosine-protein kinase JAK2 (O60674 whole entry): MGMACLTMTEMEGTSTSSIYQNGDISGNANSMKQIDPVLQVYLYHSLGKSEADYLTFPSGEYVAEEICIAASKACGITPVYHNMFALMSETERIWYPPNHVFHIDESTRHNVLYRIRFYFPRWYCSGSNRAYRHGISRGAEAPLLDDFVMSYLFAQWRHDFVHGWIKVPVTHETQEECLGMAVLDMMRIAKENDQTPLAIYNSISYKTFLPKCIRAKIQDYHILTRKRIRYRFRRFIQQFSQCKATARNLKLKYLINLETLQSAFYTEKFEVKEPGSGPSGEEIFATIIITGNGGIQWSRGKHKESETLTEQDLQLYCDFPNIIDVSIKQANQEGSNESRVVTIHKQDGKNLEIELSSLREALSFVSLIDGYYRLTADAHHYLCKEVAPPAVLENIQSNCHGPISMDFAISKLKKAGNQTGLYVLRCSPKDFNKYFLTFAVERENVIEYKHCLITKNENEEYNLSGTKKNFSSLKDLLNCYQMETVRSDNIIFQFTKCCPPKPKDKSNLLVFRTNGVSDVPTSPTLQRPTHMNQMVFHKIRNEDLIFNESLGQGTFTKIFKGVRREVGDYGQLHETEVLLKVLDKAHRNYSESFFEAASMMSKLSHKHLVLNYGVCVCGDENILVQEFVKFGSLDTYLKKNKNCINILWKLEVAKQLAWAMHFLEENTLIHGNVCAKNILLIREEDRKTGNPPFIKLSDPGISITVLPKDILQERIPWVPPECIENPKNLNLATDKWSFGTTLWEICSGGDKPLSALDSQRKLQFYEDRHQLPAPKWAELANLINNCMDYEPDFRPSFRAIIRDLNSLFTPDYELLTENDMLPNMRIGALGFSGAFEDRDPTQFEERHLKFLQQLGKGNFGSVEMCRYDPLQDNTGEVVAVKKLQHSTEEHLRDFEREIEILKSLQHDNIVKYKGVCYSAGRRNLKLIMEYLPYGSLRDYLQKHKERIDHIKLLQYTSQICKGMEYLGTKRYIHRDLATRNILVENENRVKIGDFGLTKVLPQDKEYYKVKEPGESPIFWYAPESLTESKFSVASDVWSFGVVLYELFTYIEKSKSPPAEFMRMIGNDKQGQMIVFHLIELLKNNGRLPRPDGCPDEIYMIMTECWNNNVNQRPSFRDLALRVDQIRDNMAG

[3] = target: T1, Tyrosine-protein kinase JAK3 (Homo sapiens, UniProt P52333); assay: as §1, with “JAK3” for “JAK1”, “8” for “20”, “MOPS” for “Tris/HCl”, “7.0,” for “7.5,”, “μL the” for “μL”, “scintillation” for “scintillation.”
T1 sequence (P52333 whole entry): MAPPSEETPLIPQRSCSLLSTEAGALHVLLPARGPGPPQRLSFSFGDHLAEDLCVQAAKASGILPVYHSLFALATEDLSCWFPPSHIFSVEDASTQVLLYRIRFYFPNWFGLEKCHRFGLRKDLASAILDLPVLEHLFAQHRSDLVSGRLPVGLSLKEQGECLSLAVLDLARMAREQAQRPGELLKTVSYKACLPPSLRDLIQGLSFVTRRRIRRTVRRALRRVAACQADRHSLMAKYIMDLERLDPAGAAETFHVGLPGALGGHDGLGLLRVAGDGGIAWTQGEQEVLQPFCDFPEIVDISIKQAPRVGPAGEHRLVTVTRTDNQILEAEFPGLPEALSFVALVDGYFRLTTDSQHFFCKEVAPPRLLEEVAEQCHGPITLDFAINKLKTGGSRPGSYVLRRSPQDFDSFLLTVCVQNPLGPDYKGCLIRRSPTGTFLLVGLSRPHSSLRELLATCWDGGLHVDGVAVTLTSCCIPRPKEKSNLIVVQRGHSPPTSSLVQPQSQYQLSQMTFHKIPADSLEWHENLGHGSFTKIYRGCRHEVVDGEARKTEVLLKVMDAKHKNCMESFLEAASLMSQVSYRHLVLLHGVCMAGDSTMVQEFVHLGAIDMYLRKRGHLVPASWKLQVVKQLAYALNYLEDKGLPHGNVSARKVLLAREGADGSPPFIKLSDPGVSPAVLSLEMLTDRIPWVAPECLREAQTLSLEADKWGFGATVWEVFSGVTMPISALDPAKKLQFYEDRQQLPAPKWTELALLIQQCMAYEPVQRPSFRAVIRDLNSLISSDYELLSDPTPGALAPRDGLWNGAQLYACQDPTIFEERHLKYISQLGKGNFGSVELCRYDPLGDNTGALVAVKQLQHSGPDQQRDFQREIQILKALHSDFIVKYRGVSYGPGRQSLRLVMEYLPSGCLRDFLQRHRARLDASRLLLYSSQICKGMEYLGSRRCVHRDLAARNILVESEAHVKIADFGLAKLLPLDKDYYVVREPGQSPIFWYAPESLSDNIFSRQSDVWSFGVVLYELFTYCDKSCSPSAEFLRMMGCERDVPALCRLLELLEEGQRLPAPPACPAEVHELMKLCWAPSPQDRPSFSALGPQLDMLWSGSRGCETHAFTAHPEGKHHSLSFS

[4] = target: Non-receptor tyrosine-protein kinase TYK2 (Homo sapiens, UniProt P29597); assay: as §1, with “TYK2” for “JAK1”, “8” for “20”, “MOPS” for “Tris/HCl”, “7.0,” for “7.5,”, “250” for “500”, “reaction” for “reaction solution”
Chain of Non-receptor tyrosine-protein kinase TYK2 (P29597 whole entry): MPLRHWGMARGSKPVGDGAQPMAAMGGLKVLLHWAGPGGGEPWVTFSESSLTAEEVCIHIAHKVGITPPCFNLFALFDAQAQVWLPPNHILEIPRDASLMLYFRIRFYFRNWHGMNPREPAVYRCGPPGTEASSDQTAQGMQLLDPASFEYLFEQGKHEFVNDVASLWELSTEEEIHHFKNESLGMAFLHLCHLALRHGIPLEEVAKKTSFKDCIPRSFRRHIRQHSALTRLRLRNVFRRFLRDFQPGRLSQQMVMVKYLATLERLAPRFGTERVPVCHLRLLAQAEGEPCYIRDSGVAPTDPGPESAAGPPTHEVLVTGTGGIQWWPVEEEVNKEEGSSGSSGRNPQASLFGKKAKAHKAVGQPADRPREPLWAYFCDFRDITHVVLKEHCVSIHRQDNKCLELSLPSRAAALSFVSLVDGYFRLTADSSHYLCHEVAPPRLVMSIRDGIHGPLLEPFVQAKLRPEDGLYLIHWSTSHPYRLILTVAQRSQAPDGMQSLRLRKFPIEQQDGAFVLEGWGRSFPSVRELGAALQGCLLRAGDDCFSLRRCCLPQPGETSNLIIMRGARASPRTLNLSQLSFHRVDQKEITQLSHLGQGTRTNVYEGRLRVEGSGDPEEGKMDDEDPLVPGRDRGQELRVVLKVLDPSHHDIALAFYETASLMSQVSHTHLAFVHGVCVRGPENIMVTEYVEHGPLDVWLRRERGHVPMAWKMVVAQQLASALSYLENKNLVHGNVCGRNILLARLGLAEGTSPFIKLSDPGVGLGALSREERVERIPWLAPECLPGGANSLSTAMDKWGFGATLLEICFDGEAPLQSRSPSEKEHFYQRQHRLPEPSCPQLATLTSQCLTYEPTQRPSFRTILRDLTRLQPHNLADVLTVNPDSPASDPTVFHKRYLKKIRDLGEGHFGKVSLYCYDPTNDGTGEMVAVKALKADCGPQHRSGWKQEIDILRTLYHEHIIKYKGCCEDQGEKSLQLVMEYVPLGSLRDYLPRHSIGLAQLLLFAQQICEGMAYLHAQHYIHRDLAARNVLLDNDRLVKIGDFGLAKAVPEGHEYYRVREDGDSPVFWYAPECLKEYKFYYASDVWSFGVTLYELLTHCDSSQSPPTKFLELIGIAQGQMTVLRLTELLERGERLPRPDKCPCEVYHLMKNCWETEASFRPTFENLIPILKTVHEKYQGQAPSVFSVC

SMILES | IC50 [1] | IC50 [2] | IC50 [3] | IC50 [4]
CC1(C(=O)NC2CC=C(c3cccc4nc(NC(=O)C5CC5)nn34)CC2)CC1(F)F (configuration not stated) | 0.209 µM | 1.16 µM | > 10 µM | 0.729 µM
N#CC1(C(=O)NC2CC=C(c3cccc4nc(NC(=O)C5CC5)nn34)CC2)CC1 (configuration not stated) | 0.182 µM | 1.38 µM | > 10 µM | –
